Experimental data: patent US20210024634A1, “METHODS FOR PREDICTING AND ENHANCING THERAPEUTIC BENEFIT FROM CHECKPOINT INHIBITORS IN CANCER” (The Brigham and Women's Hospital, Inc., priority 2018, published 2021)
Entries after “also recorded” stand apart in the source; their conditions may differ.

Key:
[1] = tested on: CD200; test: qPCR of CD200 RNA levels in melanoma cell lines after MEK-inhibitor treatment; format: cell-based; conditions: panel of melanoma cell lines, 24 h, 100 nM
Method: FIGS. 11A-C. 11A. CD200 decrease in melanomas after MEK-inhibitor treatment, but not in carcinomas (GSE10087). 11B. […] 11C. The pREP4-CD200 reporter recapitulates changes in response to MEK-inhibitor (24 h; 100 nM). Significance as * p<0.05: ** p<0.01, based on 2-sample, 2-tailed t-test. Because CD200 has been identified as regulated by MAPK-signaling in melanoma cells, a pathway which is frequently deregulated by BRAF(V600E) function, we wanted to assure that this mode of regulation holds true. To this end, we analyzed publicly available data (GSE10087) on MEK-inhibitor treatment across a cohort of carcinoma and melanoma cell lines (FIG. 11A), measured CD200 levels by qPCR following MEK inhibition in a cohort of our melanoma cell lines (FIG. 11B), and initial reporter assays (FIG. 11C). […] Using qPCR, we measured the effect of MEK-inhibitor treatment on CD200 RNA levels across our panel of melanoma cell lines (see FIG. 11B), using 24 h treatment with PD0325901 [100 nM].

[2] = tested on: CD200 promoter (pREP4-CD200 reporter); test: pREP4-CD200 reporter assay; format: cell-based, human; conditions: 24 h; 100 nM
Method: FIGS. 11A-C. 11A. CD200 decrease in melanomas after MEK-inhibitor treatment, but not in carcinomas (GSE10087). 11B. […] 11C. The pREP4-CD200 reporter recapitulates changes in response to MEK-inhibitor (24 h; 100 nM). Significance as * p<0.05: ** p<0.01, based on 2-sample, 2-tailed t-test. The region next to the CD200 transcription start drives basal activity. We have therefore amplified an 850 bp fragment upstream of the CD200 start codon, and cloned it into an EBNA-carrying vector (pREP4-LUC/hygromycin [50]) that remains episomal and replicates within human cells and allows nucleosome deposition to form chromatin. Because CD200 has been identified as regulated by MAPK-signaling in melanoma cells, a pathway which is frequently deregulated by BRAF(V600E) function, we wanted to assure that this mode of regulation holds true. To this end, we analyzed publicly available data (GSE10087) on MEK-inhibitor treatment across a cohort of carcinoma and melanoma cell lines (FIG. 11A), measured CD200 levels by qPCR following MEK inhibition in a cohort of our melanoma cell lines (FIG. 11B), and initial reporter assays (FIG. 11C).

O=C(NOC[C@H](O)CO)c1ccc(F)c(F)c1Nc1ccc(I)cc1F [PD0325901]
CD200 RNA levels [1]: consistently are reduced; also recorded: consistent downregulation of CD200 levels; also recorded: Consistent CD200 decrease
pREP4-CD200 reporter response [2]: parallels these responses
